From patent US8808746B2, “Sustained-release microspheres and methods of making and using same” (Fresenius Kabi USA, LLC, priority 2004, dated 2014)

Assay: pH versus accelerated stability of octreotide acetate solutions (HPLC)
Format: physicochemical
Settings: 70° C.
Procedure: For this study, 0.2 mg/mL octreotide acetate solutions in different pH buffers (buffer ionic strength=˜50 mM) were incubated at 70° C. At various designated times, the concentration of octreotide was determined using HPLC. The degradation rate versus time (Kobs) was calculated and plotted.

[1] = pH 4.0, Arginine-Acetate, 0 hours
[2] = pH 4.0, Arginine-Acetate, 24 hours
[3] = pH 4.0, Arginine-Acetate, 48 hours
[4] = pH 4.0, Arginine-Acetate, 69 hours
[5] = pH 5.0, Arginine-Acetate, 0 hours
[6] = pH 5.0, Arginine-Acetate, 24 hours
[7] = pH 5.0, Arginine-Acetate, 48 hours
[8] = pH 5.0, Arginine-Acetate, 69 hours

## C[C@@H](O)[C@@H]1NC(=O)[C@H](CCCCN)NC(=O)[C@@H](Cc2c[nH]c3ccccc23)NC(=O)[C@H](Cc2ccccc2)NC(=O)[C@@H](NC(=O)[C@H](N)Cc2ccccc2)CSSC[C@@H](C(=O)N[C@H](CO)[C@@H](C)O)NC1=O [Octreotide, octreotide acetate]
Between a pH of 3.0 and 5.0
  stability in solution: relatively stable
pH 2.0, Glycine-HCl, 0 hours
  Octreotide Assay: 0.1965 mg/mL
  Octreotide Assay (% Stability): (100.00) %
pH 2.0, Glycine-HCl, 24 hours
  Octreotide Assay: 0.1651 mg/mL
  Octreotide Assay (% Stability): (84.02) %
pH 2.0, Glycine-HCl, 48 hours
  Octreotide Assay: 0.1425 mg/mL
  Octreotide Assay (% Stability): (72.52) %
pH 2.0, Glycine-HCl, 69 hours
  Octreotide Assay: 0.1303 mg/mL
  Octreotide Assay (% Stability): (66.31) %
pH 3.0, Glycine-HCl, 0 hours
  Octreotide Assay: 0.2214 mg/mL
  Octreotide Assay (% Stability): (100.00) %
pH 3.0, Glycine-HCl, 24 hours
  Octreotide Assay: 0.2136 mg/mL
  Octreotide Assay (% Stability): (96.48) %
pH 3.0, Glycine-HCl, 48 hours
  Octreotide Assay: 0.2050 mg/mL
  Octreotide Assay (% Stability): (92.59) %
pH 3.0, Glycine-HCl, 69 hours
  Octreotide Assay: 0.2004 mg/mL
  Octreotide Assay (% Stability): (90.51) %
[1]
  Octreotide Assay: 0.1911 mg/mL
  Octreotide Assay (% Stability): (100.00) %
[2]
  Octreotide Assay: 0.1860 mg/mL
  Octreotide Assay (% Stability): (97.33) %
[3]
  Octreotide Assay: 0.1784 mg/mL
  Octreotide Assay (% Stability): (93.35) %
[4]
  Octreotide Assay: 0.1741 mg/mL
  Octreotide Assay (% Stability): (91.10) %
[5]
  Octreotide Assay: 0.2027 mg/mL
  Octreotide Assay (% Stability): (100.00) %
[6]
  Octreotide Assay: 0.1975 mg/mL
  Octreotide Assay (% Stability): (97.43) %
[7]
  Octreotide Assay: 0.1848 mg/mL
  Octreotide Assay (% Stability): (91.17) %
[8]
  Octreotide Assay: 0.1819 mg/mL
  Octreotide Assay (% Stability): (89.74) %
pH 6.0, Phosphate, 0 hours
  Octreotide Assay: 0.1934 mg/mL
  Octreotide Assay (% Stability): (100.00) %
pH 6.0, Phosphate, 24 hours
  Octreotide Assay: 0.1738 mg/mL
  Octreotide Assay (% Stability): (89.87) %
pH 6.0, Phosphate, 48 hours
  Octreotide Assay: 0.1434 mg/mL
  Octreotide Assay (% Stability): (74.15) %
pH 6.0, Phosphate, 69 hours
  Octreotide Assay: 0.1276 mg/mL
  Octreotide Assay (% Stability): (65.98) %
pH 7.0, Phosphate, 0 hours
  Octreotide Assay: 0.2047 mg/mL
  Octreotide Assay (% Stability): (100.00) %
pH 7.0, Phosphate, 24 hours
  Octreotide Assay: 0.1638 mg/mL
  Octreotide Assay (% Stability): (80.02) %
pH 7.0, Phosphate, 48 hours
  Octreotide Assay: 0.1247 mg/mL
  Octreotide Assay (% Stability): (60.92) %
pH 7.0, Phosphate, 69 hours
  Octreotide Assay: 0.1056 mg/mL
  Octreotide Assay (% Stability): (51.59) %
pH 8.0, Phosphate, 0 hours
  Octreotide Assay: 0.1906 mg/mL
  Octreotide Assay (% Stability): (100.00) %
pH 8.0, Phosphate, 24 hours
  Octreotide Assay: 0.0793 mg/mL
  Octreotide Assay (% Stability): (41.61) %
pH 8.0, Phosphate, 48 hours
  Octreotide Assay: 0.0369 mg/mL
  Octreotide Assay (% Stability): (19.36) %
pH 8.0, Phosphate, 69 hours
  Octreotide Assay: 0.0280 mg/mL
  Octreotide Assay (% Stability): (14.69) %
